Source: patent publication EP0116444A2, “Improvements in or relating to benzazepine derivatives” (ELI LILLY AND COMPANY, priority 1983, dated 1984)
Structures can show the parent of a compound that is named as a salt. Where two headings read alike, the source gives them in different places.

Tested on: spontaneously hypertensive rats
Assay: Determination of antihypertensive activity (blood pressure and heart rate) in anesthetized spontaneously hypertensive rats
Assay type: in vivo
Conditions: 10 mg./kg. i.p. in aqueous solution, anesthetized spontaneously hypertensive male rats, average of two or more experiments; for change in vivo at 10 mg/kg: Rattus norvegicus, ip
Procedure: Spontaneously hypertensive male rats were anesthetized with methoxyflurane and α-chloralose (120 mg./kg., i.v.). An aqueous solution of the compound of formula I to be tested was administered i.p. to the animal following a 15-20 minute equilibrium period. Systemic arterial blood pressure was measured from the right carotid artery via a Statham P23 ID pressure transducer and recorded on a Model R411 Beckman Dynograph recorder. Heart rate was recorded with a Beckman 9857B cardiotachometer triggered by the pulse pressure. Mean arterial pressure was calculated as the diastolic pressure plus one third of the pulse pressure. Antihypertensive responses were measured at the maximal reduction in blood pressure occurring within 30 minutes after drug administration as compared to the baseline measurements taken prior to administration of the compound. The effect on heart rate was determined at the same time the maximum reduction in blood pressure was seen and was also compared with the baseline heart rate prior to compound administration. The results in Table I are reported as the maximal reduction in blood pressure and the corresponding effect on heart rate for certain compounds of formula I. The results are the average of two or more experiments.

[1] = heart rate at the time of maximum reduction in blood pressure vs pre-treatment baseline, minus = decrease
[2] = maximal reduction in mean arterial blood pressure within 30 minutes of compound administration vs pre-treatment baseline, minus = reduction
[3] = maximal reduction in mean arterial blood pressure within 30 minutes of compound administration vs pre-treatment baseline, minus = reduction, read-out: Effect on blood pressure
[4] = heart rate at the time of maximum reduction in blood pressure vs pre-treatment baseline, minus = decrease, read-out: Effect on heart rate

Row | Compound | Effect on heart rate [1] [%] | Effect on blood pressure [2] [%] | change in vivo at 10 mg/kg [3] [%] | change in vivo at 10 mg/kg [4] [%]
1 | 2-Amino-7,8-dimethoxy-lH-3-benzazepine [Example 5] | -21.0 | -43.0 |  | 
2 | 2-Amino-7,8-dimethoxy-lH-3-benzazepine hydrochloride [Example 6] | -15.0 | -56.0 |  | 
3 | CCc1cc2c(cc1CC)CC(N)=NC=C2 [Example 1, 2-Amino-7,8-diethyl-1H-3-benzazepine hydrochloride] |  |  | -24 | 
4 | Cc1cc2c(cc1C)CC(N)=NC=C2 [Example 2, 2-Amino-7,8-dimethyl-lH-3-benzazepine hydrochloride] |  |  | -46.7 | -21.7
5 | NC1=NC=Cc2cc3ccccc3cc2C1 [Example 3, 2-Amino-lH-naphth[2,3-d]azepine] |  |  | -31 | -20
6 | COc1ccc2c(c1)CC(N)=NC=C2 [Example 4, 2-Amino-8-methoxy-1H-3-benzazepine hydrochloride] |  |  | -29.5 | -23.5
7 | CCOc1cc2c(cc1OC)CC(N)=NC=C2 [Example 7, 2-Amino-7-ethoxy-8-methoxy-lH-3-benzazepine hydrochloride] |  |  | -36 | -3
8 | COc1cc2c(cc1C)CC(N)=NC=C2 [Example 8, 2-Amino-7-methoxy-8-methyl-1H-3-benzazepine hydrochloride] |  |  | -54 | -31
9 | NC1=NC=Cc2cc3c(cc2C1)OCO3 [Example 9, 2-Amino-7,8-(methylenedioxy)-lH-3-benzazepine hydrochloride] |  |  | -19 | -11
10 | NC1=NC=Cc2ccc([N+](=O)[O-])cc2C1 [Example 10, 2-Amino-8-nitro-lH-3-benzazepine] |  |  | -55 | -22
11 | CNC1=NC=Cc2cc(OC)c(OC)cc2C1 [Example 11, 2-Methylamino-7,8-dimethoxy-lH-3-benzazepine] |  |  | -36 | -7
12 | COc1cc2c(cc1OC)CC(NC1CC1)=NC=C2.Cl [Example 12, 2-Cyclopropylamino-7,8-dimethoxy-lH-3-benzazepine hydrochloride] | -8.0 | -25.0 |  | 
13 | COc1cc2c(cc1OC)C(C)C(N)=NC=C2 (stereo not drawn) [Example 13, 1-Methyl-2-amino-7,8-dimethoxy-1H-3-benzazepine hydrochloride] |  |  | -22 | -2
14 | CCOc1cc2c(cc1OCC)CC(N)=NC=C2 [Example 14, 2-Amino-7,8-diethoxy-lH-3-benzazepine hydrochloride] |  |  | -18 | -8
15 | COc1cc2c(cc1OC)CC(NC(C)C)=NC=C2 [Example 15, 2-Isopropylamino-7,8-dimethoxy-lH-3-benzazepine hydrochloride] |  |  | -10 | -3
16 | CNC1=NC=Cc2ccccc2C1 [Example 16, 2-Methylamino-1H-3-benzazepine] |  |  | -8 | -9
17 | CCC(C)NC1=NC=Cc2ccccc2C1 (stereo not drawn) [Example 17, 2-Sec-butylamino-lH-3-benzazepine] |  |  | -22 | -13
18 | CC(C)CNC1=NC=Cc2ccccc2C1 [Example 18, 2-Isobutylamino-lE-3-benzazepine] |  |  | -17 | -7
19 | C1=Cc2ccccc2CC(NC2CC2)=N1 [Example 19, 2-Cyclopropylamino-lH-3-benzazepine] |  |  | -20 | -8

Row | Compound | Effect on heart rate [1] [%] | Effect on blood pressure [2] [%] | change in vivo at 10 mg/kg [3] [%] | change in vivo at 10 mg/kg [4] [%]
20 | C=CCNC1=NC=Cc2ccccc2C1 [Example 20, 2-Allylamino-lE-3-benzazepine] |  |  | -20 | -15
21 | CC(C)NC1=NC=Cc2ccccc2C1 [Example 21, 2-Isopropylamino-lH-3-benzazepine] |  |  | -16 | -6
22 | CCNC1=NC=Cc2cc(OC)c(OC)cc2C1 [Example 22, 2-Ethylamino-7,8-dimethoxy-lH-3-benzazepine] |  |  | -13 | 2
23 | C=CCNC1=NC=Cc2cc(OC)c(OC)cc2C1 [Example 23, 2-Allylamino-7,8-dimethoxy-lH-3-benzazepine] |  |  | -15 | -5
24 | Cc1ccc2c(c1)CC(N)=NC=C2 [Example 24, 2-Amino-8-methyl-lH-3-benzazepine] |  |  | -35 | -22
25 | CCOc1cc2c(cc1OC)CC(NC1CC1)=NC=C2 [Example 25, 2-Cyclopropylamino-7-ethoxy-8-methoxy-lH-3-benzazepine hydrochloride] |  |  | -9 | -6
26 | Cc1ccc(C)c2c1C=CN=C(N)C2 [Example 26, 2-Amino-6,9-dimethyl-lH-3-benzazepine hydrochloride] |  |  | -44 | 
27 | COc1cc2c(cc1O)CC(N)=NC=C2 [Example 27, 2-Amino-7-methoxy-8-hydroxy-lE-3-benzazepine hydrochloride] |  |  | -29 | -12
28 | COc1cc2c(cc1O)C=CN=C(N)C2 [Example 28, 2-Amino-7-hydroxy-8-methoxy-1H-3-benzazepine hydrochloride] |  |  | -11 | 0
29 | C#CCNC1=NC=Cc2cc(OC)c(OC)cc2C1 [Example 29, 2-Propargylamino-7,8-dimethoxy-lH-3-benzazepine hydrochloride] |  |  | -29 | -11
30 | NC1=NC=Cc2ccc3ccccc3c2C1 [Example 30, 2-Amino-1H-naphth[1,2-d]azepine hydrochloride] |  |  | -37 | -6
31 | NC1=NC=Cc2cc3c(cc2C1)CCC3 [Example 31, 2-Amino-1,7,8,9-tetrahydroindeno[5,6-d]-azepine hydrochloride] |  |  | -40 | -16
32 | COc1ccc(OC)c2c1C=CN=C(N)C2 [Example 32, 2-Amino-6,9-dimethoxy-lH-3-benzazepine hydrochloride] |  |  | -32 | -13
33 | COc1cc(C)c(OC)c2c1CC(N)=NC=C2 [Example 33, 2-Amino-7-methyl-6,9-dimethoxy-lH-3-benzazepine hydrochloride] |  |  | -47 | -43
34 | NC1=NC=Cc2cc3c(cc2C1)CCCC3 [Example 34, 2-Amino-7,8,9,10-tetrahydro-1H-naphth[2,3-d]-azepine hydrochloride] |  |  | -30 | -15
35 | NC1=NC=Cc2ccc3c(c2C1)CCCC3 [Example 35, 2-amino-8,9,10,11-tetra-hydro-lH-naphth[1,2-d]azepine hydrochloride] |  |  | -33 | -12
36 | COc1cc2c(cc1F)CC(N)=NC=C2 [Example 36, 2-Amino-8-fluoro-7-methoxy-1H-3-benzazepine hydrochloride] |  |  | -31 | -8
37 | CCOc1cc2c(cc1OC)C=CN=C(N)C2 [Example 37, 2-Amino-8-ethoxy-7-methoxy-lH-3-benzazepine hydrochloride] |  |  | -48 | -23
